Assay results reported in PubChem BioAssay (NCI).
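1) Cells in 96-well plates. 2) Compound, 48 h, 5 concentrations. 3) Linear interpolation between surrounding doses. 4) Unreached endpoint = highest concentration. GI50 marks 50% less growth. TGI: total growth inhibition.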

What was measured:
Assay in all cases: DTP human tumour cell line panel, 48 h
HOP-92 NSCLC = system: HOP-92 NSCLC
KM12 colon = system: KM12 colon
HT29 colon = system: HT29 colon
SK-MEL-28 melanoma = system: SK-MEL-28 melanoma
UACC-62 melanoma = system: UACC-62 melanoma
NCI-H522 lung = system: NCI-H522 lung
U251 CNS = system: U251 CNS
PC-3 prostate = system: PC-3 prostate
OVCAR-8 ovarian = system: OVCAR-8 ovarian
M14 melanoma = system: M14 melanoma
HS 578T breast = system: HS 578T breast
SK-OV-3 ovarian = system: SK-OV-3 ovarian
OVCAR-4 ovarian = system: OVCAR-4 ovarian
HL-60(TB) leukemia = system: HL-60(TB) leukemia
BT-549 breast = system: BT-549 breast
RXF 393 renal = system: RXF 393 renal
LOX IMVI melanoma = system: LOX IMVI melanoma
EKVX NSCLC = system: EKVX NSCLC
OVCAR-3 ovarian = system: OVCAR-3 ovarian
ACHN renal = system: ACHN renal
SK-MEL-5 melanoma = system: SK-MEL-5 melanoma
UACC-257 melanoma = system: UACC-257 melanoma
SF-539 CNS = system: SF-539 CNS
SW-620 colon = system: SW-620 colon
SNB-75 CNS = system: SNB-75 CNS
MDA-MB-231 breast = system: MDA-MB-231 breast
UO-31 renal = system: UO-31 renal
MALME-3M melanoma = system: MALME-3M melanoma
SF-268 CNS = system: SF-268 CNS
786-0 renal = system: 786-0 renal
RPMI-8226 leukemia = system: RPMI-8226 leukemia
SN12C renal = system: SN12C renal
T-47D breast = system: T-47D breast
NCI/ADR-RES ovarian = system: NCI/ADR-RES ovarian
NCI-H460 lung = system: NCI-H460 lung
DU-145 prostate = system: DU-145 prostate
CAKI-1 renal = system: CAKI-1 renal
HOP-62 NSCLC = system: HOP-62 NSCLC
K-562 leukemia = system: K-562 leukemia
TK-10 renal = system: TK-10 renal
SK-MEL-2 melanoma = system: SK-MEL-2 melanoma
OVCAR-5 ovarian = system: OVCAR-5 ovarian
SNB-19 CNS = system: SNB-19 CNS
MDA-MB-435 = system: MDA-MB-435
MCF7 breast = system: MCF7 breast
CCRF-CEM leukemia = system: CCRF-CEM leukemia
NCI-H226 lung = system: NCI-H226 lung
HCT-116 colon = system: HCT-116 colon
HCT-15 colon = system: HCT-15 colon
HCC-2998 colon = system: HCC-2998 colon
NCI-H23 lung = system: NCI-H23 lung
SF-295 CNS = system: SF-295 CNS
IGROV1 ovarian = system: IGROV1 ovarian
A549 NSCLC = system: A549 NSCLC
COLO 205 colon = system: COLO 205 colon
A498 renal = system: A498 renal
MOLT-4 leukemia = system: MOLT-4 leukemia
SR leukemia = system: SR leukemia

## OCC(O)C(O)C(O)/C=N/Nc1nc2ccccc2nc1-c1ccccc1 (stereo unspecified)
HOP-92 NSCLC
  GI50: 60.1 µM
  TGI: > 100 µM
KM12 colon
  GI50: > 100 µM
  TGI: > 100 µM
HT29 colon
  GI50: > 100 µM
  TGI: > 100 µM
SK-MEL-28 melanoma
  GI50: > 100 µM
  TGI: > 100 µM
UACC-62 melanoma
  GI50: 67.3 µM
  TGI: > 100 µM
NCI-H522 lung
  GI50: 72.7 µM
  TGI: > 100 µM
U251 CNS
  GI50: 77.9 µM
  TGI: > 100 µM
PC-3 prostate
  GI50: 82.4 µM
  TGI: > 100 µM
OVCAR-8 ovarian
  GI50: 91.1 µM
  TGI: > 100 µM
M14 melanoma
  GI50: > 100 µM
  TGI: > 100 µM
HS 578T breast
  GI50: 83.6 µM
  TGI: > 100 µM
SK-OV-3 ovarian
  GI50: > 100 µM
  TGI: > 100 µM
OVCAR-4 ovarian
  GI50: 28.3 µM
  TGI: 72.2 µM
HL-60(TB) leukemia
  GI50: 5.15 µM
  TGI: > 100 µM
BT-549 breast
  GI50: > 100 µM
  TGI: > 100 µM
RXF 393 renal
  GI50: > 100 µM
  TGI: > 100 µM
LOX IMVI melanoma
  GI50: 72.2 µM
  TGI: > 100 µM
EKVX NSCLC
  GI50: > 100 µM
  TGI: > 100 µM
OVCAR-3 ovarian
  GI50: 46 µM
  TGI: > 100 µM
ACHN renal
  GI50: > 100 µM
  TGI: > 100 µM
SK-MEL-5 melanoma
  GI50: 48.5 µM
  TGI: > 100 µM
UACC-257 melanoma
  GI50: > 100 µM
  TGI: > 100 µM
SF-539 CNS
  GI50: 20.5 µM
  TGI: > 100 µM
SW-620 colon
  GI50: > 100 µM
  TGI: > 100 µM
SNB-75 CNS
  GI50: > 100 µM
  TGI: > 100 µM
MDA-MB-231 breast
  GI50: 64.1 µM
  TGI: > 100 µM
UO-31 renal
  GI50: > 100 µM
  TGI: > 100 µM
MALME-3M melanoma
  GI50: > 100 µM
  TGI: > 100 µM
SF-268 CNS
  GI50: 74.1 µM
  TGI: > 100 µM
786-0 renal
  GI50: > 100 µM
  TGI: > 100 µM
RPMI-8226 leukemia
  GI50: 85.3 µM
  TGI: > 100 µM
SN12C renal
  GI50: > 100 µM
  TGI: > 100 µM
T-47D breast
  GI50: 41.5 µM
  TGI: > 100 µM
NCI/ADR-RES ovarian
  GI50: 45.9 µM
  TGI: > 100 µM
NCI-H460 lung
  GI50: 70.3 µM
  TGI: > 100 µM
DU-145 prostate
  GI50: > 100 µM
  TGI: > 100 µM
CAKI-1 renal
  GI50: 87.9 µM
  TGI: > 100 µM
HOP-62 NSCLC
  GI50: > 100 µM
  TGI: > 100 µM
K-562 leukemia
  GI50: 68.9 µM
  TGI: > 100 µM
TK-10 renal
  GI50: > 100 µM
  TGI: > 100 µM
SK-MEL-2 melanoma
  GI50: > 100 µM
  TGI: > 100 µM
OVCAR-5 ovarian
  GI50: > 100 µM
  TGI: > 100 µM
SNB-19 CNS
  GI50: > 100 µM
  TGI: > 100 µM
MDA-MB-435
  GI50: > 100 µM
  TGI: > 100 µM
MCF7 breast
  GI50: 97.9 µM
  TGI: > 100 µM
CCRF-CEM leukemia
  GI50: 32.2 µM
  TGI: > 100 µM
NCI-H226 lung
  GI50: > 100 µM
  TGI: > 100 µM
HCT-116 colon
  GI50: > 100 µM
  TGI: > 100 µM
HCT-15 colon
  GI50: 86.3 µM
  TGI: > 100 µM
HCC-2998 colon
  GI50: 91.2 µM
  TGI: > 100 µM
NCI-H23 lung
  GI50: > 100 µM
  TGI: > 100 µM
SF-295 CNS
  GI50: > 100 µM
  TGI: > 100 µM
IGROV1 ovarian
  GI50: 57.4 µM
  TGI: > 100 µM
A549 NSCLC
  GI50: > 100 µM
  TGI: > 100 µM
COLO 205 colon
  GI50: 51.6 µM
  TGI: > 100 µM
A498 renal
  GI50: > 100 µM
  TGI: > 100 µM

## O=C(Nc1cccc(-n2cc(-c3ccncc3)c(-c3ccc(O)c(Cl)c3)n2)c1)Nc1cccc(C(F)(F)F)c1
HOP-92 NSCLC
  GI50: 1.07 µM
  TGI: 4.14 µM
KM12 colon
  GI50: 1.72 µM
  TGI: 3.48 µM
HT29 colon
  GI50: 3.75 µM
  TGI: 13.7 µM
SK-MEL-28 melanoma
  GI50: 1.95 µM
  TGI: 6.18 µM
UACC-62 melanoma
  GI50: 2.28 µM
  TGI: 5.5 µM
NCI-H522 lung
  GI50: 1.55 µM
  TGI: 4.31 µM
U251 CNS
  GI50: 1.4 µM
  TGI: 4.8 µM
PC-3 prostate
  GI50: 2.47 µM
  TGI: 8.96 µM
OVCAR-8 ovarian
  GI50: 2.41 µM
  TGI: 11.1 µM
M14 melanoma
  GI50: 1.74 µM
  TGI: 3.94 µM
MOLT-4 leukemia
  GI50: 1.68 µM
  TGI: 4.94 µM
HS 578T breast
  GI50: 1.51 µM
  TGI: 7.08 µM
SK-OV-3 ovarian
  GI50: 3.59 µM
  TGI: 23.1 µM
HL-60(TB) leukemia
  GI50: 2.83 µM
  TGI: 7.49 µM
BT-549 breast
  GI50: 1.72 µM
  TGI: 4.08 µM
SR leukemia
  GI50: 1.02 µM
  TGI: 4.71 µM
RXF 393 renal
  GI50: 1.19 µM
  TGI: 4.05 µM
LOX IMVI melanoma
  GI50: 2.11 µM
  TGI: 5.87 µM
ACHN renal
  GI50: 2.51 µM
  TGI: 8.4 µM
SK-MEL-5 melanoma
  GI50: 1.59 µM
  TGI: 3.01 µM
UACC-257 melanoma
  GI50: 2.35 µM
  TGI: 5.48 µM
SF-539 CNS
  GI50: 1.64 µM
  TGI: 5.18 µM
SW-620 colon
  GI50: 2.66 µM
  TGI: 8.21 µM
SNB-75 CNS
  GI50: 1.43 µM
  TGI: 9.75 µM
MDA-MB-231 breast
  GI50: 2.24 µM
  TGI: 16.9 µM
UO-31 renal
  GI50: 2.01 µM
  TGI: 7.05 µM
MALME-3M melanoma
  GI50: 1.79 µM
  TGI: 6.45 µM
SF-268 CNS
  GI50: 2.59 µM
  TGI: 9.98 µM
786-0 renal
  GI50: 2.15 µM
  TGI: 9.2 µM
RPMI-8226 leukemia
  GI50: 1.77 µM
  TGI: 5.13 µM
SN12C renal
  GI50: 2.86 µM
  TGI: > 100 µM
T-47D breast
  GI50: 1.97 µM
  TGI: 7.3 µM
NCI/ADR-RES ovarian
  GI50: 3.24 µM
  TGI: > 100 µM
NCI-H460 lung
  GI50: 2.64 µM
DU-145 prostate
  GI50: 3.01 µM
  TGI: 11.8 µM
CAKI-1 renal
  GI50: 1.87 µM
  TGI: 5.84 µM
HOP-62 NSCLC
  GI50: 2.75 µM
  TGI: 8.36 µM
K-562 leukemia
  GI50: 2.69 µM
  TGI: > 100 µM
TK-10 renal
  GI50: 3.29 µM
  TGI: 9.3 µM
SK-MEL-2 melanoma
  GI50: 2.35 µM
  TGI: 4.75 µM
OVCAR-5 ovarian
  GI50: 3.5 µM
  TGI: 36.3 µM
SNB-19 CNS
  GI50: 2.88 µM
  TGI: 46.2 µM
MDA-MB-435
  GI50: 1.82 µM
  TGI: 4.65 µM
MCF7 breast
  GI50: 2.15 µM
  TGI: 6.59 µM
CCRF-CEM leukemia
  GI50: 2.12 µM
  TGI: 7.92 µM
NCI-H226 lung
  GI50: 2.52 µM
  TGI: 9.02 µM
HCT-116 colon
  GI50: 2.05 µM
  TGI: 5.87 µM
HCT-15 colon
  GI50: 2.24 µM
  TGI: 10.2 µM
HCC-2998 colon
  GI50: 4.3 µM
  TGI: 37.5 µM
NCI-H23 lung
  GI50: 2.59 µM
  TGI: 8.81 µM
SF-295 CNS
  GI50: 1.97 µM
  TGI: 5.47 µM
IGROV1 ovarian
  GI50: 2.47 µM
  TGI: 5.98 µM
A549 NSCLC
  GI50: 1.93 µM
  TGI: 8.09 µM
COLO 205 colon
  GI50: 1.96 µM
  TGI: 3.73 µM
A498 renal
  GI50: 1.9 µM
  TGI: 8.99 µM
